{"source": "ChEMBL document CHEMBL3351422", "about": "“Discovery of N-substituted 7-azaindoline derivatives as potent, orally available M1 and M4 muscarinic acetylcholine receptors selective agonists” (Bioorg Med Chem Lett, 2014)", "key": {"[1]": {"test": "Oral bioavailability in dog at 1 mg/kg", "type": "ADME, organism-based, Canis lupus familiaris", "details": "in vivo"}, "Rattus norvegicus [2]": {"species_on_record": "Rattus norvegicus", "test": "Inhibition of rat N-type calcium channel at 3 uM by radioligand binding assay"}, "[3]": {"target": "Adenosine receptor A3 (Homo sapiens) (UniProt P0DMS8)", "sequence (P0DMS8 whole entry)": "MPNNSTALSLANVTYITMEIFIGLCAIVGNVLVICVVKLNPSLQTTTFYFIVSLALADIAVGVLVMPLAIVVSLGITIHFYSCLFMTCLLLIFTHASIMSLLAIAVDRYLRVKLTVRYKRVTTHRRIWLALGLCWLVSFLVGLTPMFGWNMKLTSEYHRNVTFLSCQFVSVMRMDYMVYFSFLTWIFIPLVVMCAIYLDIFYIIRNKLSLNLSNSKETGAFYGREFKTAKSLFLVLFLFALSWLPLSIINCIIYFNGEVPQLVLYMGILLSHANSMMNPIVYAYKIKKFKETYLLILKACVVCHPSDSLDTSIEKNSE", "test": "Inhibition of human adenosine A3 receptor at 3 uM by radioligand binding assay"}, "Rattus norvegicus [4]": {"species_on_record": "Rattus norvegicus", "test": "Inhibition of rat purinergic P2Y receptor at 3 uM by radioligand binding assay"}, "[5]": {"target": "Neuropeptide Y receptor type 1 (Homo sapiens) (UniProt P25929)", "test": "Inhibition of human neuropeptide YY1 receptor at 3 uM by radioligand binding assay"}, "[6]": {"target": "Glutamate NMDA receptor (Rattus norvegicus) (UniProt P35439+Q00959+Q00960+Q00961+Q62645+Q8VHN2+Q9R1M7)", "test": "Inhibition of rat NMDA receptor agonist binding site at 3 uM by radioligand binding assay", "type": "protein-complex assay"}, "[7]": {"target": "Adenosine receptor A2a (Homo sapiens) (UniProt P29274)", "test": "Inhibition of human adenosine A2A receptor at 3 uM by radioligand binding assay"}, "[8]": {"target": "T1, Muscarinic acetylcholine receptor M4 (Homo sapiens) (UniProt P08173)", "T1 sequence (whole entry)": "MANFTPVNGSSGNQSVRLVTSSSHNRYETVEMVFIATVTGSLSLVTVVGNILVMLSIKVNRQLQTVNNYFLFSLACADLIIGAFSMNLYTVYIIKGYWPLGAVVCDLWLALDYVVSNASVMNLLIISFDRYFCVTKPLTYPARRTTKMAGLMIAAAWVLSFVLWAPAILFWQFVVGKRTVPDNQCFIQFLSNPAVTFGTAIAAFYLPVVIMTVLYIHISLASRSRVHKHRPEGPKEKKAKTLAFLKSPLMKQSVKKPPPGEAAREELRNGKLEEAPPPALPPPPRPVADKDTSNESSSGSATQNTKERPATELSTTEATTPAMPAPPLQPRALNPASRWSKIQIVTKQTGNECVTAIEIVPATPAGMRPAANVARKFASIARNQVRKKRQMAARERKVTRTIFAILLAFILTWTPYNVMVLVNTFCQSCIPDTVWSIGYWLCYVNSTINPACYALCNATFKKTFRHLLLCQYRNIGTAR", "test": "Intrinsic activity at muscarinic M4 receptor (unknown origin) by calcium mobilization assay", "type": "functional"}, "Rattus norvegicus [9]": {"species_on_record": "Rattus norvegicus", "test": "Inhibition of rat GABAA central type receptor muscimol binding site at 3 uM by radioligand binding assay"}, "[10]": {"target": "cAMP and cAMP-inhibited cGMP 3',5'-cyclic phosphodiesterase 10A (Homo sapiens) (UniProt Q9Y233)", "sequence (Q9Y233 whole entry)": "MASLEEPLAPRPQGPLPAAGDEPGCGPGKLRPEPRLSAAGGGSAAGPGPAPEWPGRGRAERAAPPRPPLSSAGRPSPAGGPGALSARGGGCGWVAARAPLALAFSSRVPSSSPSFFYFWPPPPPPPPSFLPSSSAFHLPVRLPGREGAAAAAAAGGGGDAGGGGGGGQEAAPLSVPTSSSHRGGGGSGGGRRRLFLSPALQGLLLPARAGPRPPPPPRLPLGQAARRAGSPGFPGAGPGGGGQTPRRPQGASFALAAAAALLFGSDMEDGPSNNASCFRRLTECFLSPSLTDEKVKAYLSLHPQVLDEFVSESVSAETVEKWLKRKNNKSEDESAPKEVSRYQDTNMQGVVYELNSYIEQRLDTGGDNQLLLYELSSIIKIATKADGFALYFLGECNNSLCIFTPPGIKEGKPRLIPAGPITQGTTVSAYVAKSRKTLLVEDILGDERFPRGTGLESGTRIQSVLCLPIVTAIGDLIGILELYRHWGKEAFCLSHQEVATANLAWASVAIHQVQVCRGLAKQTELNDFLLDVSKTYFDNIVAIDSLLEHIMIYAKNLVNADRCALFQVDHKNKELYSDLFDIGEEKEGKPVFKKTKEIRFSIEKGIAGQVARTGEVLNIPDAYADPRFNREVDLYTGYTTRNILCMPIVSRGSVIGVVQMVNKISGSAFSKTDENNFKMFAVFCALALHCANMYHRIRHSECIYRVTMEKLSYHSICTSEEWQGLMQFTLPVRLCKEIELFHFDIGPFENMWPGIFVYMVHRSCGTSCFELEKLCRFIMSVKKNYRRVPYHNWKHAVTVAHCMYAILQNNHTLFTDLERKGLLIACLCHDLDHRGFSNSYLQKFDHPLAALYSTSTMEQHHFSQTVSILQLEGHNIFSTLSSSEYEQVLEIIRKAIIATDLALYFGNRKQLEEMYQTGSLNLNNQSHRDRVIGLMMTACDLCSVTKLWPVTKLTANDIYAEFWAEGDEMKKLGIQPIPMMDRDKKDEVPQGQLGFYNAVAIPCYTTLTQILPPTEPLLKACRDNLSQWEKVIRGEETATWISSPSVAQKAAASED", "test": "Inhibition of human PDE10A1 at 3 uM by radioligand binding assay"}, "[11]": {"target": "Sodium-dependent serotonin transporter (Homo sapiens) (UniProt P31645)", "test": "Inhibition of human SERT at 3 uM by radioligand binding assay"}, "[12]": {"target": "Sodium-dependent dopamine transporter (Homo sapiens) (UniProt Q01959)", "test": "Inhibition of human DAT at 3 uM by radioligand binding assay"}, "[13]": {"test": "Blood brain barrier penetration in rat at 0.25 mg/kg, iv and 2.5 mg/kg, po", "type": "ADME, organism-based"}, "[14]": {"target": "Histamine H2 receptor (Homo sapiens) (UniProt P25021)", "sequence (P25021 whole entry)": "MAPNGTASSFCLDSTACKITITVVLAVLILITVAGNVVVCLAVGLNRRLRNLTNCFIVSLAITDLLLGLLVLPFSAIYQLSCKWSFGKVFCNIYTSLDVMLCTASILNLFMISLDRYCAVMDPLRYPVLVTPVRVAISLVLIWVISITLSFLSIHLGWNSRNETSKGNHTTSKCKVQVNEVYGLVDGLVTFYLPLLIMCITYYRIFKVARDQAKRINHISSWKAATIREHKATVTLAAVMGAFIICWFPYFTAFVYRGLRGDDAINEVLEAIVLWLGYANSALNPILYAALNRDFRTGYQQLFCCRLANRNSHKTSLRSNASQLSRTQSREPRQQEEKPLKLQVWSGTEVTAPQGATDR", "test": "Inhibition of human histamine H2 receptor at 3 uM by radioligand binding assay"}, "[15]": {"target": "Gamma-aminobutyric acid type B receptor subunit 1 (Homo sapiens) (UniProt Q9UBS5)", "test": "Inhibition of human GABAB1A receptor at 3 uM by radioligand binding assay"}, "[16]": {"test": "Oral bioavailability in monkey at 2.5 mg/kg", "type": "ADME, organism-based, Macaca mulatta", "details": "rhesus monkey, in vivo"}, "[17]": {"target": "Alpha-1B adrenergic receptor (Rattus norvegicus) (UniProt P15823)", "test": "Inhibition of rat alpha1B adrenergic receptor at 3 uM by radioligand binding assay"}, "[18]": {"target": "Alpha-1D adrenergic receptor (Homo sapiens) (UniProt P25100)", "sequence (P25100 whole entry)": "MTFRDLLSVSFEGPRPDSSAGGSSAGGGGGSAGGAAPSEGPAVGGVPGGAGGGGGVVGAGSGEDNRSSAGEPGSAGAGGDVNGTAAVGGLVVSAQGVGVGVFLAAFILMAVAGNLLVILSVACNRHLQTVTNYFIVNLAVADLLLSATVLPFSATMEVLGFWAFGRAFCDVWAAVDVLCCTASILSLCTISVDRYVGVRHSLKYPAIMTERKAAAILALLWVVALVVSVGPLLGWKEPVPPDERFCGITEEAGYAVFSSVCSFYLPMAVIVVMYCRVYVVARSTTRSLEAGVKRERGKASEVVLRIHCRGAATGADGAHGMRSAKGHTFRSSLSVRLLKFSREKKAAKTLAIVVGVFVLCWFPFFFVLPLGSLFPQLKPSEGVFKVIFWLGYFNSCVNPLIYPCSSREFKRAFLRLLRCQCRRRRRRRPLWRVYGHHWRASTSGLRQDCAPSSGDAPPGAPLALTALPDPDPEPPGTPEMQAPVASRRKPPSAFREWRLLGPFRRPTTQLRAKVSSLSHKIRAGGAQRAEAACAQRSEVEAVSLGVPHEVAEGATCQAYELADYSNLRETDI", "test": "Inhibition of human alpha1D adrenergic receptor at 3 uM by radioligand binding assay"}, "[19]": {"target": "Adenosine receptor A1 (Homo sapiens) (UniProt P30542)", "test": "Inhibition of human adenosine A1 receptor at 3 uM by radioligand binding assay"}, "Rattus norvegicus [20]": {"species_on_record": "Rattus norvegicus", "test": "Displacement of [125I]alpha-bungarotoxin from rat nicotinic acetylcholine receptor at 3 uM by radioligand binding assay"}, "[21]": {"target": "Glucocorticoid receptor (Homo sapiens) (UniProt P04150)", "sequence (P04150 whole entry)": "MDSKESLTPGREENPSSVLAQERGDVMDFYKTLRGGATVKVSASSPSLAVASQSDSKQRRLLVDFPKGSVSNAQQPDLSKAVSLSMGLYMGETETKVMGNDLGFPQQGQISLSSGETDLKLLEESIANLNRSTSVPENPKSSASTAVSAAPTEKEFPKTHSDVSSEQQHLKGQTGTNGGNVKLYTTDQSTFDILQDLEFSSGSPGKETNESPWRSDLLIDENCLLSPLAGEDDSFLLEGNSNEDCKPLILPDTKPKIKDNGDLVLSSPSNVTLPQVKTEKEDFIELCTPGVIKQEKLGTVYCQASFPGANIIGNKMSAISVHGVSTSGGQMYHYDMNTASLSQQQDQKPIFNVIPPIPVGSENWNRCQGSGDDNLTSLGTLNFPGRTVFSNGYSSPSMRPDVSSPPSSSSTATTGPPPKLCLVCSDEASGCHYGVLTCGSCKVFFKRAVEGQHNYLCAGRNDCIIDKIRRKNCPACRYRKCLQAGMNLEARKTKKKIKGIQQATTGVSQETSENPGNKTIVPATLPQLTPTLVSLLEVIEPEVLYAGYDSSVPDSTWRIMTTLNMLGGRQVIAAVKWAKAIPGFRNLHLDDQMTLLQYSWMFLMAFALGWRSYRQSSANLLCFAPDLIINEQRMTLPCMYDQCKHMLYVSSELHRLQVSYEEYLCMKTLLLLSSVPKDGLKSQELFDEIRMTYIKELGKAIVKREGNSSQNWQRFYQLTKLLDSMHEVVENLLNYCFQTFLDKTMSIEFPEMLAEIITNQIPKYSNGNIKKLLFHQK", "test": "Inhibition of human glucocortlicoid receptor at 3 uM by radioligand binding assay"}, "[22]": {"target": "T2, Muscarinic acetylcholine receptor M2 (Homo sapiens) (UniProt P08172)", "T2 sequence (whole entry)": "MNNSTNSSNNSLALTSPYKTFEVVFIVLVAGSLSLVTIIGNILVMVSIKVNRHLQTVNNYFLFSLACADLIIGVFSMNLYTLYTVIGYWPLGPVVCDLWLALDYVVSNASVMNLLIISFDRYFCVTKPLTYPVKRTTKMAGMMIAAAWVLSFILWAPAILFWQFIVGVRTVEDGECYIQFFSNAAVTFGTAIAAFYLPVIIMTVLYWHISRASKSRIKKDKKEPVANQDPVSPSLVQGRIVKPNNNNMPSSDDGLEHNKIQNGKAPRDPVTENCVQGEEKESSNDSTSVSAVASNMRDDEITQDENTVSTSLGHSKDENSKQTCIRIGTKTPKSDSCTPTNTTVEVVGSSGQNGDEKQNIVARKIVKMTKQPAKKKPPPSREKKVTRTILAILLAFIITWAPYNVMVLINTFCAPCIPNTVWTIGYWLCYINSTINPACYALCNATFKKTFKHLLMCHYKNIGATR", "test": "Agonist activity at muscarinic M2 receptor (unknown origin) at 0.3 uM by calcium mobilization assay", "type": "functional"}, "[23]": {"target": "Alpha-1A adrenergic receptor (Rattus norvegicus) (UniProt P43140)", "sequence (P43140 whole entry)": "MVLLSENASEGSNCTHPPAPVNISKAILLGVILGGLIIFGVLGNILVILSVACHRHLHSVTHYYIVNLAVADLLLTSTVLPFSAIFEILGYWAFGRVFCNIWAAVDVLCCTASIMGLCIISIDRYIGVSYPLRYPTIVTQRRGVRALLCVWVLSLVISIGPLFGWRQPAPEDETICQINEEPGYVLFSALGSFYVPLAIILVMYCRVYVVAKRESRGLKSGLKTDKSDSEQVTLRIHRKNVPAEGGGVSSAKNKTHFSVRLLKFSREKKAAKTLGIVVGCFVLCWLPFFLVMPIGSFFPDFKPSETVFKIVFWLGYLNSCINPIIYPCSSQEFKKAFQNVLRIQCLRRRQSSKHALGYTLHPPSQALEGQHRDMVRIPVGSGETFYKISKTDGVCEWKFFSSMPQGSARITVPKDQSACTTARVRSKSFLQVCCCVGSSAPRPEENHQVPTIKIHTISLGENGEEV", "test": "Inhibition of rat alpha1A adrenergic receptor at 3 uM by radioligand binding assay"}, "[24]": {"target": "Mu-type opioid receptor (Homo sapiens) (UniProt P35372)", "test": "Inhibition of human mu opioid receptor at 3 uM by radioligand binding assay"}, "Rattus norvegicus [25]": {"species_on_record": "Rattus norvegicus", "test": "Inhibition of rat thyroid hormone receptor at 3 uM by radioligand binding assay"}, "[26]": {"target": "Muscarinic acetylcholine receptor M4 (Homo sapiens, UniProt P08173)", "test": "Agonist activity at muscarinic M4 receptor (unknown origin) by calcium mobilization assay", "type": "functional"}, "[27]": {"target": "Cannabinoid receptor 1 (Homo sapiens) (UniProt P21554)", "sequence (P21554 whole entry)": "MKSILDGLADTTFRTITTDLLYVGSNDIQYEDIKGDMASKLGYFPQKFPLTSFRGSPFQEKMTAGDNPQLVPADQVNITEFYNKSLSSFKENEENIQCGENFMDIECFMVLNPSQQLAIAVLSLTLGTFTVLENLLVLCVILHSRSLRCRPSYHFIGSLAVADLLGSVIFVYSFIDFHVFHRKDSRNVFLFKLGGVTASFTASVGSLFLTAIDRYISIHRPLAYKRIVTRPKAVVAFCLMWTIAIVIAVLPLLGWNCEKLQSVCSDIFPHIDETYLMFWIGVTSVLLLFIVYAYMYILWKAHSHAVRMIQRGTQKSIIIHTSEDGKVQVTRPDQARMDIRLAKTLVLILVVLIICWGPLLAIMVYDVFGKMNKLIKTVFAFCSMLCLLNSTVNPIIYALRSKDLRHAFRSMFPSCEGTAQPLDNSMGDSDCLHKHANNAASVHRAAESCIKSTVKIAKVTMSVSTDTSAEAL", "test": "Inhibition of human CB1 receptor at 3 uM by radioligand binding assay"}, "[28]": {"test": "Clearance in rat at 0.25 mg/kg, iv and 2.5 mg/kg, po", "type": "ADME, organism-based", "details": "in vivo"}, "[29]": {"target": "T2, Muscarinic acetylcholine receptor M2 (Homo sapiens)", "test": "Intrinsic activity at muscarinic M2 receptor (unknown origin) at 10 uM by calcium mobilization assay", "type": "functional"}, "[30]": {"target": "Sigma non-opioid intracellular receptor 1 (Homo sapiens) (UniProt Q99720)", "sequence (Q99720 whole entry)": "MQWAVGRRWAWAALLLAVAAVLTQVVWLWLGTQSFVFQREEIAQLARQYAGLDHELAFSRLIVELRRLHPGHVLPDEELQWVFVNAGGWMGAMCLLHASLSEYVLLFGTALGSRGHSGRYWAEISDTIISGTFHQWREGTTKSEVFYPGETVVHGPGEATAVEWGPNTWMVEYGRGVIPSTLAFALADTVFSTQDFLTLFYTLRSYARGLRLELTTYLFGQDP", "test": "Inhibition of human sigma1 receptor at 3 uM by radioligand binding assay"}, "[31]": {"target": "5-hydroxytryptamine receptor 3A (Homo sapiens) (UniProt P46098)", "test": "Inhibition of human 5-HT3 receptor at 3 uM by radioligand binding assay"}, "[32]": {"target": "T1, Muscarinic acetylcholine receptor M4 (Homo sapiens)", "test": "Agonist activity at muscarinic M4 receptor (unknown origin) at 0.3 uM by calcium mobilization assay", "type": "functional"}, "[33]": {"target": "Acetylcholinesterase (Homo sapiens) (UniProt P22303)", "sequence (P22303 whole entry)": "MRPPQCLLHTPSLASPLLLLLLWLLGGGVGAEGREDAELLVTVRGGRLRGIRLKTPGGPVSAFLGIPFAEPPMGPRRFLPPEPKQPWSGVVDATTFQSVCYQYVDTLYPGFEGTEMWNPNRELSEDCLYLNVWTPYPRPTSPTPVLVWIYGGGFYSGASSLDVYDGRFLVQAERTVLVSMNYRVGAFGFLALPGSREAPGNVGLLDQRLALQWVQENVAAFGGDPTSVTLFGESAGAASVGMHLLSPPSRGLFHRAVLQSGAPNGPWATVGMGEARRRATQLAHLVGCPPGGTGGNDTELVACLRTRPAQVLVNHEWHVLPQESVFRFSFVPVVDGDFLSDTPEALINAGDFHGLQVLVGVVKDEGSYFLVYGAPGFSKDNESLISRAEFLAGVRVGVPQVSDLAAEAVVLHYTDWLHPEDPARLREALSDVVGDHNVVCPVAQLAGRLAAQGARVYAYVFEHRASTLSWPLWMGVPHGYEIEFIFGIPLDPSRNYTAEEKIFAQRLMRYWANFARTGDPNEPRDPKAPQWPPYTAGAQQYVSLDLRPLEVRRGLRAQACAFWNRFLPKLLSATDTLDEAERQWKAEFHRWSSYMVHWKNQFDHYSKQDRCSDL", "test": "Inhibition of human acetylcholinesterase at 3 uM by radioligand binding assay"}}, "data": [{"molecule": "CCOC(=O)N1CCC(CN2CCC3(CC2)CN(C(=O)N(C)C)c2ncccc23)CC1.O=C(O)/C=C/C(=O)O", "values": [{"measurement": "bioavailability", "setting": "[1]", "result": 49.3, "unit": "%"}, {"measurement": "inhibition", "setting": "Rattus norvegicus [2]", "result": 4, "unit": "%"}, {"measurement": "inhibition", "setting": "[3]", "result": -8, "unit": "%"}, {"measurement": "inhibition", "setting": "Rattus norvegicus [4]", "result": 9, "unit": "%"}, {"measurement": "inhibition", "setting": "[5]", "result": -2, "unit": "%"}, {"measurement": "inhibition", "setting": "[6]", "result": 4, "unit": "%"}, {"measurement": "inhibition", "setting": "[7]", "result": 7, "unit": "%"}, {"measurement": "Intrinsic activity", "setting": "[8]", "result": 108, "unit": "%"}, {"measurement": "inhibition", "setting": "Rattus norvegicus [9]", "result": 2, "unit": "%"}, {"measurement": "inhibition", "setting": "[10]", "result": -2, "unit": "%"}, {"measurement": "inhibition", "setting": "[11]", "result": 3, "unit": "%"}, {"measurement": "inhibition", "setting": "[12]", "result": -2, "unit": "%"}, {"measurement": "Kp", "setting": "[13]", "result": 0.7}, {"measurement": "inhibition", "setting": "[14]", "result": 4, "unit": "%"}, {"measurement": "inhibition", "setting": "[15]", "result": 2, "unit": "%"}, {"measurement": "bioavailability", "setting": "[16]", "result": 39.8, "unit": "%"}, {"measurement": "inhibition", "setting": "[17]", "result": 9, "unit": "%"}, {"measurement": "inhibition", "setting": "[18]", "result": 10, "unit": "%"}, {"measurement": "inhibition", "setting": "[19]", "result": 15, "unit": "%"}, {"measurement": "inhibition", "setting": "Rattus norvegicus [20]", "result": 7, "unit": "%"}, {"measurement": "inhibition", "setting": "[21]", "result": 15, "unit": "%"}, {"measurement": "Activity", "setting": "[22]", "result": 10, "unit": "%"}, {"measurement": "inhibition", "setting": "[23]", "result": 37, "unit": "%"}, {"measurement": "inhibition", "setting": "[24]", "result": 3, "unit": "%"}, {"measurement": "inhibition", "setting": "Rattus norvegicus [25]", "result": 4, "unit": "%"}, {"measurement": "EC50", "setting": "[26]", "result": 47, "unit": "nM"}, {"measurement": "inhibition", "setting": "[27]", "result": 11, "unit": "%"}, {"measurement": "clearance", "setting": "[28]", "result": 28.4, "unit": "mL/min/kg"}, {"measurement": "Intrinsic activity", "setting": "[29]", "result": 5, "unit": "%"}, {"measurement": "inhibition", "setting": "[30]", "result": 57, "unit": "%"}, {"measurement": "inhibition", "setting": "[31]", "result": -10, "unit": "%"}, {"measurement": "Activity", "setting": "[32]", "result": 118, "unit": "%"}, {"measurement": "inhibition", "setting": "[33]", "result": 5, "unit": "%"}]}]}
